{"source": "paper PMC11843613", "about": "“Further Optimization of the mGlu1 PAM VU6024578/BI02982816: Discovery and Characterization of VU6033685” (ACS Chemical Neuroscience, 2025)", "key": {"[1]": {"assay": "Predicted hepatic clearance (c)", "format": "in vitro ADME, c (presumably cynomolgus)", "experimental": "(§1) at half log concentrations in DMSO were further diluted in assay buffer. The compounds or DMSO vehicle were added to cells and incubated for 2.5 min and an EC20 concentration of glutamate was added and incubated for 1 min. An ECmax concentration of glutamate was also added to cells that were incubated with DMSO vehicle to accurately calculate the EC20 calcium response. Data were normalized by subtracting the basal florescent peak before EC20 agonist addition from the maximal peak elicited by EC20 agonist and PAMs. Using GraphPad Prism 5.0, the concentration response curves were generated and the potencies of the mGlu1 PAMs were determined.\n(§2) Plasma protein binding: The protein binding of each compound was determined in plasma via equilibrium dialysis employing RED Plates (ThermoFisher Scientific, Rochester, NY). Plasma was added to the 96 well plate containing test compound and mixed thoroughly for a final concentration of 5 µM. […]\n(§3) Each compound was assayed in triplicate within the same 96-well plate. Fraction unbound was determined using the following equation […]\n(§4) After a 5 min preincubation, the reaction was initiated by addition of NADPH (1 mM). […] The in vitro half-life (T 1/2, min, Eq. 1), intrinsic clearance (CLint, mL/min/kg, Eq. 2) and subsequent predicted hepatic clearance (CLhep, mL/min/kg, Eq. 3) was determined […]"}, "[2]": {"assay": "Solubility in FASSGF and FASSIF", "format": "physicochemical"}, "[3]": {"assay": "Rat tolerability in NOR and PO PK studies"}, "[4]": {"details": "Sprague-Dawley, in vivo"}, "[5]": {"assay": "Predicted hepatic clearance (dog)", "format": "in vitro ADME", "experimental": "as §1, §2, §3, §4"}, "[6]": {"target": "mouse mGlu1 (Mus musculus, UniProt P97772)", "sequence (P97772 19-1199 limits assumed)": "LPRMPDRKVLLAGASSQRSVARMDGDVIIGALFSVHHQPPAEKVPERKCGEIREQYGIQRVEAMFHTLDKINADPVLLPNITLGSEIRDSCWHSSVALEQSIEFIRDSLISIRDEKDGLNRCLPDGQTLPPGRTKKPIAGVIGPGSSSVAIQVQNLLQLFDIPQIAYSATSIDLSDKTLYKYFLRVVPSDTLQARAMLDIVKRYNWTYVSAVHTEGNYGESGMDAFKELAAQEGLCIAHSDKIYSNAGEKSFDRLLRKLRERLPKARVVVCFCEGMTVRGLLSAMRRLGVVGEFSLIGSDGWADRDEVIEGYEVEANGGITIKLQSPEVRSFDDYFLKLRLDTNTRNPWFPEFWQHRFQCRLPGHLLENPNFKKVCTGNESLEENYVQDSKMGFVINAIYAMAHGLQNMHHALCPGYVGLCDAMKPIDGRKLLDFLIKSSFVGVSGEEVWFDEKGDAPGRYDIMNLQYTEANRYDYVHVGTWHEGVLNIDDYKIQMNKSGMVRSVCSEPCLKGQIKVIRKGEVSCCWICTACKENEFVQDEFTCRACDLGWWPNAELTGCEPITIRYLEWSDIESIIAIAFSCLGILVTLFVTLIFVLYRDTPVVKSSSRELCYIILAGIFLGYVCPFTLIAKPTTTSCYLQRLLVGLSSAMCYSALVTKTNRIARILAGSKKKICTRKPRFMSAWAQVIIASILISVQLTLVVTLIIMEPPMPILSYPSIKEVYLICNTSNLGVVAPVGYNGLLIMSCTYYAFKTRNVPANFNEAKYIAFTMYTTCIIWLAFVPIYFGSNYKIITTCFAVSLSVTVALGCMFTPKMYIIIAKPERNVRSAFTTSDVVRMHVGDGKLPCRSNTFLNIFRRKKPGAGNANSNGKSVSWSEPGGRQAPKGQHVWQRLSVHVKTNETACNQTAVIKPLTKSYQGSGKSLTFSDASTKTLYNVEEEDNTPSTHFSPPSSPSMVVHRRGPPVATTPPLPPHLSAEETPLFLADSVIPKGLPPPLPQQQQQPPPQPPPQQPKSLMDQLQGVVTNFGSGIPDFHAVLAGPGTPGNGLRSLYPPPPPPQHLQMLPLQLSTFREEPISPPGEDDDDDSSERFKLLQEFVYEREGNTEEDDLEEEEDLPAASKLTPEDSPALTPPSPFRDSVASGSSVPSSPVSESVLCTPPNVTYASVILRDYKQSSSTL", "assay": "mGlu1 PAM functional assay (mouse)", "format": "cell-based"}, "[7]": {"target": "h mGlu5 (Homo sapiens, UniProt P41594)", "sequence (P41594 21-1212)": "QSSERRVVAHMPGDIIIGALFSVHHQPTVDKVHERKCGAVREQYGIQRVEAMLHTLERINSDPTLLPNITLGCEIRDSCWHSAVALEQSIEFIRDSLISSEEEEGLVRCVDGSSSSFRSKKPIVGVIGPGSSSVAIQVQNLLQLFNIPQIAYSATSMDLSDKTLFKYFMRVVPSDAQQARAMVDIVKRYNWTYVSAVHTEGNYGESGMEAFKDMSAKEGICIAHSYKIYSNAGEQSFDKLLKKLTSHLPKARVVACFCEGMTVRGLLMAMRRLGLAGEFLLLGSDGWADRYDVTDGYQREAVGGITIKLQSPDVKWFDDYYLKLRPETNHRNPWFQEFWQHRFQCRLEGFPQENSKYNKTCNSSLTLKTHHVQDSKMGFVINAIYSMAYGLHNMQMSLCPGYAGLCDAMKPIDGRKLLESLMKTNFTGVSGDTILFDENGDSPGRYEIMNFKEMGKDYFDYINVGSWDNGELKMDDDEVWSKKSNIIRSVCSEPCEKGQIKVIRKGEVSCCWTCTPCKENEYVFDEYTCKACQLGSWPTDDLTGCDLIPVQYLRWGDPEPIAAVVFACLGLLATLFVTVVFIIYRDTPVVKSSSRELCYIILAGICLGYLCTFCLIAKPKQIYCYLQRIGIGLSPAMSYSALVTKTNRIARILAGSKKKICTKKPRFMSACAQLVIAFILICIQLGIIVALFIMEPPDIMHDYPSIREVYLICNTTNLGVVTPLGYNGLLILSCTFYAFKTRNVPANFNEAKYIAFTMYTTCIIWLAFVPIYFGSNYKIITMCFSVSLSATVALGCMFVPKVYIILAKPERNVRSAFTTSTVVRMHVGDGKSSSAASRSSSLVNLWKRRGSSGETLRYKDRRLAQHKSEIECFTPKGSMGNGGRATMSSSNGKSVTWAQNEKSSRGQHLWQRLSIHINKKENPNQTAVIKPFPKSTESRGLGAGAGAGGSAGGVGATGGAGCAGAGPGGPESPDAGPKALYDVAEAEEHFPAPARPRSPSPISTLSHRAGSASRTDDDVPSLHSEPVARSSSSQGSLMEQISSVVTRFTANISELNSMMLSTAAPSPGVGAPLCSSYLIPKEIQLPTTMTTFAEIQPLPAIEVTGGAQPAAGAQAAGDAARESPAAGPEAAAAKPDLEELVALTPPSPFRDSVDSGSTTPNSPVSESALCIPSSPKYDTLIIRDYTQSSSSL", "assay": "mGlu5 PAM functional assay", "format": "cell-based"}, "[8]": {"test_system": "h and r mGlu2-4,6-8", "assay": "mGlu subtype selectivity", "format": "cell-based, human, rat", "details": "Table 1"}}, "note": "Read-outs that look alike come from different tables or passages of the source.", "data": [{"compound": "Cc1nc(C2CC2)ccc1CNC(=O)c1cc(-n2cccn2)ccc1Cl", "note": "[compound 8]", "values": [{"measurement": "Predicted CLhep (c)", "setting": "[1]", "value": 33.2, "unit": "mL/min/kg"}, {"measurement": "solubility", "setting": "[2]; FASSGF, fassgf or other biorelevant, read-out: Solubility FASSGF", "value": 572, "unit": "µg/mL"}, {"measurement": "solubility", "setting": "[2]; FASSIF, read-out: Solubility FASSIF", "value": 23.6, "unit": "µg/mL"}, {"measurement": "adverse events at 6.2-fold rat EC50 free in brain", "setting": "[3]; rat PO", "value": "piloerection, slow movement, and reaction to stimuli"}, {"measurement": "duration of adverse events postdose", "setting": "[3]; rat PO", "value": "~2", "unit": "h"}, {"measurement": "free brain concentration (fold rat EC50) that resulted in AEs", "setting": "[3]; rat PO PK studies", "value": 6.2, "unit": "fold"}, {"measurement": "free brain concentration that resulted in AEs", "setting": "[3]; rat PO PK studies", "value": 664, "unit": "nM"}, {"measurement": "free brain concentration (fold rat EC50) that was well tolerated", "setting": "[4]", "value": "up to 5.3 fold"}, {"measurement": "Predicted CLhep (d)", "setting": "[5]", "value": 15.1, "unit": "mL/min/kg"}, {"measurement": "EC50", "setting": "[6]", "value": 0.052, "unit": "µM"}, {"measurement": "mouse mGlu1 Glu Max", "setting": "[6]", "value": 102, "unit": "%"}, {"measurement": "mGlu5 Glu Max", "setting": "[7]", "value": 72, "unit": "%"}, {"measurement": "EC50", "setting": "[7]; Table 1, unit inferred", "value": 3.76, "unit": "µM"}, {"measurement": "EC50", "setting": "[8]", "value": "> 10", "unit": "µM"}]}]}
